Patent US9403806B1, “Cognition enhancing compounds and compositions, methods of making, and methods of treating” (NeuroSolis, Inc., priority 2010, dated 2016)
Read-outs that look alike come from different tables or passages of the source.

Assays:
[1] = target: T1, human muscarinic M1 receptors (Homo sapiens, UniProt P11229); format: cell-based; settings: for huM1/A9L Smax: percentage of maximal stimulation by carbachol; for huM1/A9L Potency relative to carbachol: relative to the potency of carbachol at its EC50
T1 construct: host or cells: A9L cells
T1 sequence (P11229 1-460): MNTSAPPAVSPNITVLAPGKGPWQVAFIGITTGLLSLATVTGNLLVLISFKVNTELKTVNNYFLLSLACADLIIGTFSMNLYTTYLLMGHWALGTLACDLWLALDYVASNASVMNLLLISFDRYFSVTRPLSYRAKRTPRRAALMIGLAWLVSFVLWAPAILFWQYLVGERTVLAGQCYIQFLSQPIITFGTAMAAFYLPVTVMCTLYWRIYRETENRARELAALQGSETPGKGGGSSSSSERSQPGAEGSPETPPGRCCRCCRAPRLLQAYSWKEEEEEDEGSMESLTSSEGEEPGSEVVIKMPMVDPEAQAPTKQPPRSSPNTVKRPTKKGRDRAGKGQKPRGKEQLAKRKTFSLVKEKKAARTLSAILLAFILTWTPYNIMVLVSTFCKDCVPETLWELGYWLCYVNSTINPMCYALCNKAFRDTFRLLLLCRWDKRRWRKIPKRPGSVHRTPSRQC
Experimental: (§1) Muscarinic M1 and M3 agonist activity was evaluated by measuring the stimulation of inositol phosphate (IP) production in the presence of lithium chloride from A9L cells transfected with expression plasmids containing human muscarinic M1 and M3 receptors, respectively. The cell lines were a gift from Professor William Messer, and the methods were as described in Tejada et al. (J. Med. Chem. 2006; 49: 7518-31) except that the assay was scaled down to run in 384-well plates and the concentration of inositol-1-phosphate in the lysates was determined using the non-isotopic IP-One Terbium TR-FRET assay kit (Cisbio Bioassays, cat. #62IPAPEJ) according to the manufacturer's instructions.
(§2) Cells were grown to 90% confluence in 384-well high-base, small-volume plates (Greiner Bio-One), compounds were added at suitable concentrations in growth medium containing 10 mM LiCl, buffered with an extra 10 mM HEPES (pH=7.4), and incubated for 60 minutes at 37° C. Cells were lysed and assayed for IP following the manufacturer's instructions.
(§3) The value for a full agonist is 100%, while partial agonists give values below 100%.

[2] = target: T2, human muscarinic M3 receptors (Homo sapiens, UniProt P20309); format: cell-based; settings: for huM3/A9L Smax: percentage of maximal stimulation by carbachol; for huM3/A9L Potency relative to carbachol: relative to the potency of carbachol at its EC50
T2 construct: host or cells: A9L cells
Experimental: as §1, §2, §3

[3] = tested on: muscarinic M1 receptors in the hippocampus; test: In vivo inositol phosphate increase in hippocampus, Example 44; parameters: species or system Long Evans Hooded rats; settings: rat, 3 mg/kg sc
Experimental: (§4) In lithium chloride-treated laboratory rodents, engagement of muscarinic M1 receptors in the hippocampus may usefully be evaluated in vivo by measuring the increase in the tissue of inositol phosphate (Bymaster F P et al Brain Res 795 (1998) 179-190). This may also be extended to measure engagement of muscaric M3 receptors in the salivary glands.
(§5) Experimental compounds were administered subcutaneously at 3 mg/kg using standard techniques to Long Evans Hooded rats weighing 225 to 350 g, and which had been pretreated with a subcutaneous injection of lithium chloride at a suitable dose between 3 and 5 mmole/kg. At suitable times the animals were briefly anesthetized using 5% isoflurane and euthanized by decapitation. The brains and submaxillary salivary glands were rapidly dissected out, and the hippocampuses were dissected from the brains. The dissected tissues were homogenized in a suitable volume of ice-cold phosphate-buffered saline containing 10 mM lithium chloride (pH=7.4) using a tissue homogenizer, and used immediately or frozen in aliquots at −80° C. for future use. The concentration of inositol-1-phosphate was determined in the homogenates using the […] IP-One Terbium TR-FRET assay kit (Cisbio Bioassays, cat. #62IPAPEJ) according to the manufacturer's instructions.

[4] = tested on: muscarinic M3 receptors in the salivary glands; test: In vivo inositol phosphate increase in salivary glands, Example 44; parameters: species or system Long Evans Hooded rats; settings: rat, 3 mg/kg sc
Experimental: as §4, §5

[5] = tested on: pooled male human liver microsomes; test: Metabolism in human liver microsomes, Example 45; format: in vitro ADME
Experimental: Aliquots were removed every 2 hours, and 1% formic acid was added to halt the reaction. Samples were centrifuged, filtered through 0.2 micron spinfilter, and the amount of each compound in the supernatants was quantitated using LC/MS/MS as follows. The ultra-filtrates were subjected to reverse-phase liquid chromatography using a 150×2.1 mm Agilent C8-reverse phase column on a Shimadzu Prominence LC, eluting the compound with a gradient of 2%-50% acetonitrile+0.1% formic acid over 5 minutes. The concentration of the compound in the column effluent was measured using an Applied Biosystems API-3200 triple quadrupole mass spectrometer equipped with a Turbo V source (electrospray sample injection) system. The counts of the characteristic parent ions of the protonated compound and product ions were converted to concentration by comparison with a standard calibration curve. The parent/daughter ion pairs that were monitored for each compound were: 166.0/82.0 (105), 166.0/82.0 (106b), 166.0/82.0 (106a), 169.0/83.0 (136), 168.2/83.0 (121), 168.1/83.0 (122a), 168.1/83.0 (122b), 170.2/83.0 (134), 168.2/84.1 (135), 168.1/84.1 (137) and 169.2/82.1 (138).

in vitro = in vitro ADME; settings: pH 7.4, 24 hours, room temperature; for Papp at 24 h, 400 µM: PAMPA, pH 7.4, 400 μM, read-out: PAMPA Permeability Coefficient (×10^6)
Experimental: PAMPA is a useful in vitro model for predicting the passive diffusion of drugs across the blood-brain barrier (Li, D et al Eur jour of Med Chem 38 (2003) 223-232).
Compounds were diluted in a 100 mM phosphate buffer (pH 7.4) to a concentration of 400 μM and the stock solutions were placed into a 96-well filter plate (Millipore, #MAIPN4510) pre-wetted with 20 mg/mL porcine brain polar lipid extract in 100% dodecane (Avanti, #131022) and placed into a 96-well acceptor plate (Millipore, #MSSACCEPTOR) whose wells were filled with the same phosphate buffer as in the filter plate. This assembly was incubated at room temperature for 24 hours. The experiment was halted by separating the filter plate from the acceptor plate. Aliquots were removed from the filter plate wells, acceptor plate wells, and stock solutions, and 1% trifluoroacetic acid was added to each. All solutions were measured by LC/UV, and passive diffusion rates were calculated using the peak area values (Avdeef, Alex. 2003. Page 147 in Absorption and Drug Development. Hoboken, N.J.: John Wiley & Sons).

[6] = Blood and brain concentrations (rats), tail vein injection; format: in vivo, Long-Evans Hooded rats; settings: rat; for Kp at 1 h: brain and plasma, intravenous, Table 114, read-out: Brain/Plasma Ratio
Experimental: Long-Evans Hooded rats (Charles River: male, 230-300 g) were dosed with solutions of test compounds in PBS by tail vein injection. The dose for all compounds was 3 mg/kg. At one hour, the animals were anesthetized with isoflurane, and then euthanized by decapitation. Trunk blood was collected into a 1.5 mL microcentrifuge tube containing 15 U Heparin, and the plasma recovered after centrifugation. Brains were dissected, weighed, immediately chilled to 4° C., and homogenized using a PowerGen 125 homogenizer in five volumes of ice-cold 2% formic acid. Proteins were precipitated from plasma and brain homogenate with nine and five volumes respectively of ice-cold 2% formic acid and clarified by centrifugation. The supernatant was ultra-filtered by centrifugation through a 3K MWCO spin column (Pall Life Sciences), following the manufacturer's instructions. The concentration of compound in the ultra-filtrate was subjected to reverse-phase liquid chromatography using a 150×2.1 mm Agent C8 reverse-phase column on a Shimadzu Prominence LC, eluting the compounds with a gradient of 2% to 50% of acetonitrile+0.1% formic acid for all compounds. The concentration of the compound in the column effluent was measured using an Applied Biosystems API-3200 triple quadrupole mass spectrometer equipped with an electrospray sample injection system. The counts of the characteristic parent and product ions of each test compound were converted to concentration units by comparison with a standard curve.

[7] = as above; format: in vivo, Long-Evans Hooded rats; settings: rat, 3 mg/kg tail vein injection; for half-life: male, Long-Evans Hooded, plasma, iv, 3 mg/kg, read-out: Plasma Terminal Half-life (converted)
[8] = male, Long-Evans Hooded, 3 mg/kg
[9] = male, Long-Evans Hooded, in vivo, 3 mg/kg, 3 mg/kg tail vein injection, read-out: Brain Concentration at 1 hr
[10] = male, Long-Evans Hooded, in vivo, 3 mg/kg, 3 mg/kg tail vein injection, read-out: Plasma Concentration at 1 hr
[11] = 3 mg/kg tail vein injection, read-out: Brain Concentration at 1 hr

T2 sequence (P20309 whole entry): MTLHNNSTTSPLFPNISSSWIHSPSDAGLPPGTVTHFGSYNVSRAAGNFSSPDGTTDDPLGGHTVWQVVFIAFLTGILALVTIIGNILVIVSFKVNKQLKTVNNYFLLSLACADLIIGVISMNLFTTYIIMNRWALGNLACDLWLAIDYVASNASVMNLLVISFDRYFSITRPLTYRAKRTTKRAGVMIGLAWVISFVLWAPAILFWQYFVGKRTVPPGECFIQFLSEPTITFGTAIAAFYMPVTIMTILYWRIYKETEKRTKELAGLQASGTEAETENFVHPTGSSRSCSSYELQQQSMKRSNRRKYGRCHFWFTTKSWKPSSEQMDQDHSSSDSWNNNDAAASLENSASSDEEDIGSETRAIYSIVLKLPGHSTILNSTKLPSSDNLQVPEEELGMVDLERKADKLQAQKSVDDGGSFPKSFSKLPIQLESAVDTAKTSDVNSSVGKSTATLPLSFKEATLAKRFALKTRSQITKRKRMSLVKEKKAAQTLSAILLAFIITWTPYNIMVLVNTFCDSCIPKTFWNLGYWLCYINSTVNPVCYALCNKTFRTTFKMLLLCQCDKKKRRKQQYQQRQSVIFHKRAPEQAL

Row | Structure (SMILES) | huM1/A9L Smax [1] | huM1/A9L Potency relative to carbachol [1] | huM3/A9L Smax [2] | huM3/A9L Potency relative to carbachol [2] | Loss at 6 hrs (%) [5] | Papp at 24 h, 400 µM (in vitro) | Kp at 1 h [6, 8] | concentration at 1 h [6, 9] | concentration at 1 h [6, 10] | half-life [7] | Increase in Inositol Phosphate in Hippocampus/Control ([3]; 5 mmole/kg LiCl) | Increase in Inositol Phosphate in Salivary Gland/Control ([4]; 5 mmole/kg LiCl) | Increase in Inositol Phosphate in Hippocampus/Control ([3]; 5 mmole/kg LiCl, 3 mg/kg) | Increase in Inositol Phosphate in Salivary Gland/Control ([4]; 5 mmole/kg LiCl, 3 mg/kg) | concentration at 1 h [6, 11] | other results
1 | [2H]C1([2H])NC[C@@]2(c3nc(C)no3)C[C@@H]12 [Compound 122a, 5-((1R,5R)-4,4-d2-3-azabicyclo[3.1.0]hexan-1-yl)-3-methyl-1,2,4-oxadiazole] | 77% | 1.09 | 44% | 0.38 | 20% | 3.93 ×10⁻⁶ cm/s | 0.59 | 5 µM | 12.2 µM | 0.97 h | – | – | – | – | – | Increase in Inositol Phosphate in Hippocampus/Control ([3]; 3 mmole/kg LiCl): 487%; Increase in Inositol Phosphate in Salivary Gland/Control ([4]; 3 mmole/kg LiCl): 182%
2 | Cc1noc(C23CNCC2C3)n1 (racemic) [Compound 105, 5-(3-Azabicyclo[3.1.0]hexan-1-yl)-3-methyl-1,2,4-oxadiazole] | 58% | 0.78 | 33% | 0.17 | 27% | 4.49 ×10⁻⁶ cm/s | 0.38 | 4.4 µM | 15 µM | 1.1 h | 563% | 219% | – | – | – | –
3 | [2H]C([2H])([2H])c1noc(C23CNC([2H])([2H])C2C3)n1 (stereo not drawn) [Compound 135, 5-(2,2-d2-3-azabicyclo[3.1.0]hexan-1-yl)-3-methyl-1,2,4-oxadiazole] | 70% | 1.39 | 46% | 0.49 | 26% | – | – | – | – | – | – | – | 614% | 194% | 7.7 µM | PAMPA Permeability Coefficient (×10^6) (in vitro; 400 μM): 5.40 ×10^6; Brain/plasma ratio ([6]; Table 114, 3 mg/kg): 0.61; Plasma Concentration at 1 hr ([6]; 3 mg/kg tail vein injection): 13.8 µM; Plasma Terminal Half-life [7]: 1.0 h
4 | [2H]C([2H])([2H])c1noc(C23CNC([2H])([2H])C2C3)n1 (stereo not drawn) [Compound 136, 5-(4,4,5-d3-3-azabicyclo[3.1.0]hexan-1-yl)-3-methyl-1,2,4-oxadiazole] | 41% | 0.89 | 36% | 0.45 | 11% | 3.71 ×10⁻⁶ cm/s | 0.56 | – | 13.6 µM | 1.15 h | – | – | 694% | 231% | 7.4 µM | –
5 | [2H]C1([2H])NC([2H])([2H])C2(c3nc(C)no3)CC12 (stereo not drawn) [Compound 134, 5-(2,2,4,4-d4-3-Azabicyclo[3.1.0]hexan-1-yl)-3-methyl-1,2,4-oxadiazole] | 61% | 1.17 | 41% | 0.35 | 10% | 3.46 ×10⁻⁶ cm/s | 0.65 | 8.4 µM | 13.5 µM | 1.4 h | 574% | 214% | – | – | – | –
